From ChEMBL document CHEMBL1287731, “Synthesis and in vitro inhibitory activity of matrine derivatives towards pro-inflammatory cytokines” (Bioorg Med Chem Lett, 2010)

The molecules below were run on RAW264.7 (assay: Cytotoxicity against mouse RAW264.7 cells). Details: not given.
Format: cell-based
O=C1CCC[C@@H]2[C@H]3CCCN4CCC[C@@H](CN12)[C@@H]34 [MATRINE] was tested, and the Activity was “Non-toxic”. With CC(C)N[C@@H]1CC(=S)N2C[C@@H]3CCCN4CCC[C@@H]([C@H]34)[C@H]2C1 the Activity was “Non-toxic”. For CCCN[C@@H]1CC(=S)N2C[C@@H]3CCCN4CCC[C@@H]([C@H]34)[C@H]2C1, the Activity was “Non-toxic”. For OCCCN[C@@H]1CC(=S)N2C[C@@H]3CCCN4CCC[C@@H]([C@H]34)[C@H]2C1, the Activity was “Non-toxic”. With OCCOCCN[C@@H]1CC(=S)N2C[C@@H]3CCCN4CCC[C@@H]([C@H]34)[C@H]2C1 the Activity was “Non-toxic”. For N[C@@H]1CC(=O)N2C[C@@H]3CCCN4CCC[C@@H]([C@H]34)[C@H]2C1, the Activity was “Non-toxic”. For S=C1C[C@@H](NCC2CC2)C[C@@H]2[C@H]3CCCN4CCC[C@@H](CN12)[C@@H]34, the Activity was “Non-toxic”. CCN[C@@H]1CC(=S)N2C[C@@H]3CCCN4CCC[C@@H]([C@H]34)[C@H]2C1 was tested, and the Activity was “Non-toxic”. With O=C1C=CC[C@@H]2[C@H]3CCCN4CCC[C@@H](CN12)[C@@H]34 [SOPHOCARPINE] the Activity was “Non-toxic”. For OCCN[C@@H]1CC(=S)N2C[C@@H]3CCCN4CCC[C@@H]([C@H]34)[C@H]2C1, the Activity was “Non-toxic”. In the case of S=C1C[C@@H](NCc2ccccc2)C[C@@H]2[C@H]3CCCN4CCC[C@@H](CN12)[C@@H]34, the Activity is reported as “Non-toxic”. In the case of CN[C@@H]1CC(=S)N2C[C@@H]3CCCN4CCC[C@@H]([C@H]34)[C@H]2C1, the Activity is reported as “Non-toxic”. C=CCN[C@@H]1CC(=S)N2C[C@@H]3CCCN4CCC[C@@H]([C@H]34)[C@H]2C1 was tested, and the Activity was “Non-toxic”.

The molecules below were run on RAW264.7 (assay: Antiinflammatory activity in mouse RAW264.7 cells assessed as inhibition of LPS-induced TNF-alpha production at 10 uM after 6 hrs by ELISA). Details: RAW264.7, 6 h.
Format: functional
With CC(C)N[C@@H]1CC(=S)N2C[C@@H]3CCCN4CCC[C@@H]([C@H]34)[C@H]2C1 the inhibition at 10 µM was 24%. Molecule CCCN[C@@H]1CC(=S)N2C[C@@H]3CCCN4CCC[C@@H]([C@H]34)[C@H]2C1 has an inhibition at 10 µM of 9.6%. Molecule OCCCN[C@@H]1CC(=S)N2C[C@@H]3CCCN4CCC[C@@H]([C@H]34)[C@H]2C1 has an inhibition at 10 µM of 22.8%. With OCCOCCN[C@@H]1CC(=S)N2C[C@@H]3CCCN4CCC[C@@H]([C@H]34)[C@H]2C1 the inhibition at 10 µM was 8.4%. In the case of S=C1C[C@@H](NCC2CC2)C[C@@H]2[C@H]3CCCN4CCC[C@@H](CN12)[C@@H]34, the inhibition at 10 µM is reported as 16.2%. CCN[C@@H]1CC(=S)N2C[C@@H]3CCCN4CCC[C@@H]([C@H]34)[C@H]2C1 was tested, and the inhibition at 10 µM was 41.5%. With OCCN[C@@H]1CC(=S)N2C[C@@H]3CCCN4CCC[C@@H]([C@H]34)[C@H]2C1 the inhibition at 10 µM was 29.3%. S=C1C[C@@H](NCc2ccccc2)C[C@@H]2[C@H]3CCCN4CCC[C@@H](CN12)[C@@H]34 was tested, and the inhibition at 10 µM was 33.9%. CN[C@@H]1CC(=S)N2C[C@@H]3CCCN4CCC[C@@H]([C@H]34)[C@H]2C1 was tested, and the inhibition at 10 µM was 9.1%. With C=CCN[C@@H]1CC(=S)N2C[C@@H]3CCCN4CCC[C@@H]([C@H]34)[C@H]2C1 the inhibition at 10 µM was 52.5%.

These molecules were tested on RAW264.7 (assay: Inhibition of NF-kappaB transcriptional activity in LPS-stimulated mouse RAW264.7 cells by dual luciferase reporter assay relative to renilla luciferase activity). Details: not given.
Format: cell-based
For O=C1CCC[C@@H]2[C@H]3CCCN4CCC[C@@H](CN12)[C@@H]34 [MATRINE], the fold change (FC) was 5.11. In the case of CC(C)N[C@@H]1CC(=S)N2C[C@@H]3CCCN4CCC[C@@H]([C@H]34)[C@H]2C1, the fold change (FC) is reported as 6.56. CCCN[C@@H]1CC(=S)N2C[C@@H]3CCCN4CCC[C@@H]([C@H]34)[C@H]2C1 gave a fold change (FC) of 3.4. OCCCN[C@@H]1CC(=S)N2C[C@@H]3CCCN4CCC[C@@H]([C@H]34)[C@H]2C1 was tested, and the fold change (FC) was 3.14. With OCCOCCN[C@@H]1CC(=S)N2C[C@@H]3CCCN4CCC[C@@H]([C@H]34)[C@H]2C1 the fold change (FC) was 4.75. N[C@@H]1CC(=O)N2C[C@@H]3CCCN4CCC[C@@H]([C@H]34)[C@H]2C1 gave a fold change (FC) of 6.54. Work on S=C1C[C@@H](NCC2CC2)C[C@@H]2[C@H]3CCCN4CCC[C@@H](CN12)[C@@H]34 yielded a fold change (FC) of 7.83. Work on CCN[C@@H]1CC(=S)N2C[C@@H]3CCCN4CCC[C@@H]([C@H]34)[C@H]2C1 yielded a fold change (FC) of 1.96. For O=C1C=CC[C@@H]2[C@H]3CCCN4CCC[C@@H](CN12)[C@@H]34 [SOPHOCARPINE], the fold change (FC) was 3.47. For OCCN[C@@H]1CC(=S)N2C[C@@H]3CCCN4CCC[C@@H]([C@H]34)[C@H]2C1, the fold change (FC) was 4.85. S=C1C[C@@H](NCc2ccccc2)C[C@@H]2[C@H]3CCCN4CCC[C@@H](CN12)[C@@H]34 was tested, and the fold change (FC) was 8.39. CN[C@@H]1CC(=S)N2C[C@@H]3CCCN4CCC[C@@H]([C@H]34)[C@H]2C1 gave a fold change (FC) of 3.69. C=CCN[C@@H]1CC(=S)N2C[C@@H]3CCCN4CCC[C@@H]([C@H]34)[C@H]2C1 was tested, and the fold change (FC) was 1.47.

Each molecule was assayed on RAW264.7 (assay: Antiinflammatory activity in mouse RAW264.7 cells assessed as inhibition of LPS-induced TNF-alpha production after 6 hrs by ELISA). Details: not given.
Format: functional, cell-based
O=C1CCC[C@@H]2[C@H]3CCCN4CCC[C@@H](CN12)[C@@H]34 [MATRINE] was tested, and the inhibition was “Dose-dependent effect”. For CC(C)N[C@@H]1CC(=S)N2C[C@@H]3CCCN4CCC[C@@H]([C@H]34)[C@H]2C1, the inhibition was “Dose-dependent effect”. With CCCN[C@@H]1CC(=S)N2C[C@@H]3CCCN4CCC[C@@H]([C@H]34)[C@H]2C1 the inhibition was “Dose-dependent effect”. With OCCCN[C@@H]1CC(=S)N2C[C@@H]3CCCN4CCC[C@@H]([C@H]34)[C@H]2C1 the inhibition was “Dose-dependent effect”. With OCCOCCN[C@@H]1CC(=S)N2C[C@@H]3CCCN4CCC[C@@H]([C@H]34)[C@H]2C1 the inhibition was “Dose-dependent effect”. In the case of N[C@@H]1CC(=O)N2C[C@@H]3CCCN4CCC[C@@H]([C@H]34)[C@H]2C1, the inhibition is reported as “Dose-dependent effect”. For S=C1C[C@@H](NCC2CC2)C[C@@H]2[C@H]3CCCN4CCC[C@@H](CN12)[C@@H]34, the inhibition was “Dose-dependent effect”. For CCN[C@@H]1CC(=S)N2C[C@@H]3CCCN4CCC[C@@H]([C@H]34)[C@H]2C1, the inhibition was “Dose-dependent effect”. O=C1C=CC[C@@H]2[C@H]3CCCN4CCC[C@@H](CN12)[C@@H]34 [SOPHOCARPINE] was tested, and the inhibition was “Dose-dependent effect”. In the case of OCCN[C@@H]1CC(=S)N2C[C@@H]3CCCN4CCC[C@@H]([C@H]34)[C@H]2C1, the inhibition is reported as “Dose-dependent effect”. For S=C1C[C@@H](NCc2ccccc2)C[C@@H]2[C@H]3CCCN4CCC[C@@H](CN12)[C@@H]34, the inhibition was “Dose-dependent effect”. CN[C@@H]1CC(=S)N2C[C@@H]3CCCN4CCC[C@@H]([C@H]34)[C@H]2C1 was tested, and the inhibition was “Dose-dependent effect”. With C=CCN[C@@H]1CC(=S)N2C[C@@H]3CCCN4CCC[C@@H]([C@H]34)[C@H]2C1 the inhibition was “Dose-dependent effect”.

Same assay, conditions: RAW264.7, 6 h
With O=C1CCC[C@@H]2[C@H]3CCCN4CCC[C@@H](CN12)[C@@H]34 [MATRINE] the IC50 was > 200 µM. Molecule CC(C)N[C@@H]1CC(=S)N2C[C@@H]3CCCN4CCC[C@@H]([C@H]34)[C@H]2C1 has an IC50 of 52.3 µM. In the case of CCCN[C@@H]1CC(=S)N2C[C@@H]3CCCN4CCC[C@@H]([C@H]34)[C@H]2C1, the IC50 is reported as 93.5 µM. Molecule OCCCN[C@@H]1CC(=S)N2C[C@@H]3CCCN4CCC[C@@H]([C@H]34)[C@H]2C1 has an IC50 of 53.8 µM. OCCOCCN[C@@H]1CC(=S)N2C[C@@H]3CCCN4CCC[C@@H]([C@H]34)[C@H]2C1 gave an IC50 of 57.5 µM. In the case of N[C@@H]1CC(=O)N2C[C@@H]3CCCN4CCC[C@@H]([C@H]34)[C@H]2C1, the IC50 is reported as > 200 µM. In the case of S=C1C[C@@H](NCC2CC2)C[C@@H]2[C@H]3CCCN4CCC[C@@H](CN12)[C@@H]34, the IC50 is reported as 119 µM. With CCN[C@@H]1CC(=S)N2C[C@@H]3CCCN4CCC[C@@H]([C@H]34)[C@H]2C1 the IC50 was 23.5 µM. With O=C1C=CC[C@@H]2[C@H]3CCCN4CCC[C@@H](CN12)[C@@H]34 [SOPHOCARPINE] the IC50 was > 200 µM. OCCN[C@@H]1CC(=S)N2C[C@@H]3CCCN4CCC[C@@H]([C@H]34)[C@H]2C1 was tested, and the IC50 was 39.2 µM. In the case of S=C1C[C@@H](NCc2ccccc2)C[C@@H]2[C@H]3CCCN4CCC[C@@H](CN12)[C@@H]34, the IC50 is reported as 62 µM. In the case of CN[C@@H]1CC(=S)N2C[C@@H]3CCCN4CCC[C@@H]([C@H]34)[C@H]2C1, the IC50 is reported as 93.2 µM. For C=CCN[C@@H]1CC(=S)N2C[C@@H]3CCCN4CCC[C@@H]([C@H]34)[C@H]2C1, the IC50 was 9.4 µM.
